# Results: patent US20110053900A1, “PROGESTERONE ANTAGONISTS SUCH AS CDB-4124 IN THE TREATMENT OF BREAST CANCER” (Repros Therapeutics inc, priority 2008, published 2011)
# How the values were obtained:
# [1] = target: T1, glucocorticoid receptor (rbGR) (Oryctolagus cuniculus, UniProt P59667); assay: Glucocorticoid receptor binding; set-up: species or system rabbit
# T1 construct: cytosol containing PR or GR were prepared in TEGMD buffer; from tissue; host or cells: thymus of estradiol-primed immature rabbits (cytosol)
# T1 sequence (P59667 1-772): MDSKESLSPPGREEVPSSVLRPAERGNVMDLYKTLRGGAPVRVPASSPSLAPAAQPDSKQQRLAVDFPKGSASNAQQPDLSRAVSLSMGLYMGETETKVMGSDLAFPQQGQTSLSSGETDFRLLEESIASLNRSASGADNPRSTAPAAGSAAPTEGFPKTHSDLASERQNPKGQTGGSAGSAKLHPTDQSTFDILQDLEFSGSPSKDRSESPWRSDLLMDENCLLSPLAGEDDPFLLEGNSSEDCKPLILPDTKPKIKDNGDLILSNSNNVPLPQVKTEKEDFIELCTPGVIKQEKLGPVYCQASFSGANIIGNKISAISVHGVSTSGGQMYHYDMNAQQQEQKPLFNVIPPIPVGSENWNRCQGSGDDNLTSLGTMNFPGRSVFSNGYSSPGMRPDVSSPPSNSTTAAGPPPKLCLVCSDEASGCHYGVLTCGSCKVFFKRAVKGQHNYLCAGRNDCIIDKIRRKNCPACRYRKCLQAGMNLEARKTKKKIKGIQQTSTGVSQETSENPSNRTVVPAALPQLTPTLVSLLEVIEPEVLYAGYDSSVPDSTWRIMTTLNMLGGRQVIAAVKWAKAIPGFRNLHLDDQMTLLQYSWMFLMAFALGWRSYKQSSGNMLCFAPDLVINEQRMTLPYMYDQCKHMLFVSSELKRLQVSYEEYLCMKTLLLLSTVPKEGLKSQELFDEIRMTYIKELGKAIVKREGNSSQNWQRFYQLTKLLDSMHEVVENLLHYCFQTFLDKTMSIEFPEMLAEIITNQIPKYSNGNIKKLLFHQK
# Protocol: Certain antiprogestins were tested in receptor-binding assays for their ability to bind rabbit progesterone receptor (rbPR) and glucocorticoid receptor (rbGR). […] For PR binding, the cytosol was incubated with 6 nM 1,2-[^3H]progesterone (50.0 Ci/mmole) and competitors were added at concentrations from 2 to 100 nM. For binding to GR, the cytosol was incubated with 6 nM 6,7-[^3H]-dexamethasone (40 Ci/mmol) and test compounds were added at concentrations from 20 to 100 nM. After overnight incubation at 4° C., bound and unbound [^3H] steroids were separated by addition of dextran-coated charcoal and centrifugation at 2100×g for 15 min at 4
# C. Supernatants containing the [3H]-steroid receptor complexes were decanted into vials containing 4 ml Optifluor (Packard Instrument Co.), vortexed, equilibrated in a liquid scintillation counter for 30 minutes and then counted for 2 minutes. […] The standards for the PR and GR assays were unlabeled progesterone and dexamethasone, respectively.
# [2] = tested on: rabbit progesterone receptor (rbPR) and glucocorticoid receptor (rbGR); assay: Receptor-binding assays, ratio of relative binding affinities rbPR/rbGR; details: RBA = EC50 of standard/EC50 of test compound x 100
# Protocol: Certain antiprogestins were tested in receptor-binding assays for their ability to bind rabbit progesterone receptor (rbPR) and glucocorticoid receptor (rbGR). Briefly, cytosol containing PR or GR were prepared in TEGMD buffer (10 mM Tris, pH 7.2, 1.5 mM EDTA, 0.2 mM sodium molybdate, 10% glycerol, 1 mM DTT) from uterus or thymus, respectively, of estradiol-primed immature rabbits. For PR binding, the cytosol was incubated with 6 nM 1,2-[^3H]progesterone (50.0 Ci/mmole) and competitors were added at concentrations from 2 to 100 nM. For binding to GR, the cytosol was incubated with 6 nM 6,7-[^3H]-dexamethasone (40 Ci/mmol) and test compounds were added at concentrations from 20 to 100 nM. After overnight incubation at 4° C., bound and unbound [^3H] steroids were separated by addition of dextran-coated charcoal and centrifugation at 2100×g for 15 min at 4
# C. Supernatants containing the [3H]-steroid receptor complexes were decanted into vials containing 4 ml Optifluor (Packard Instrument Co.), vortexed, equilibrated in a liquid scintillation counter for 30 minutes and then counted for 2 minutes. The ECso (Effective Concentration) for each standard curve and each of the compound curves was determined by entering the counting data into a four parameter sigmoidal computer program (RiaSmart® Immunoassay Data Reduction Program, Packard Instrument Co., Meriden, Conn.). Relative binding affinity (RBA) for each compound was calculated using the following equation: EC50 of standard/EC50 of test compound×100. The standards for the PR and GR assays were unlabeled progesterone and dexamethasone, respectively. The results of these experiments are summarized in Table 1, as a ratio of the relative binding affinities of each compound for the rbPR and rbGR receptors (rbPR/rbGR).
# [3] = tested on: rabbit uterus; assay: Anti-McGinty and anti-Clauberg assays; type: in vivo; details: average of anti-McGinty and anti-Clauberg results relative to CDB-2914 = 1.00
# Description: Also given in the Table are the relative biological activities of the same compounds in the rabbit uterus by the anti-McGinty and anti-Clauberg assays. Compound CDB-2914 (listed at the end of the Table) was used as the control or reference compound (rabbit Biological Activity=1.00) for these experiments because results of experiments using CDB-2914 have been published before (Hild-Petito et al., 1996; Passaro et al., 1997; Reel et al., 1998; Lamer et al., 2000). For the anti-McGinty test, immature female rabbits received a subcutaneous injection of 5 μg estradiol in 10% ethanol/sesame oil daily for 6 consecutive days. On day 7, animals underwent sterile abdominal surgery to ligate a 3-4 cm segment of both uterine horns. The test compound in appropriate solvent was injected intraluminally into the ligated segment of one uterine horn and vehicle alone into the other. A stimulating dose of progesterone (267 μg/day) was administered subcutaneously to each rabbit daily for the next three days to induce endometrial proliferation. All animals were sacrificed at day 10 for removal of the uterus where a segment central to the ligatures was removed and fixed in 10% neutral buffered formalin and submitted for histological processing. Five micron sections stained with hematoxylin and cosin were evaluated microscopically for the degree of endometrial glandular proliferation. The percent inhibition of endometrial proliferation for each rabbit was calculated and the mean of the group of five animals recorded. For the Anti-Clauberg test, immature female rabbits received a subcutaneous injection of 5 μg estradiol in 10% ethanol/sesame oil daily for 6 consecutive days. On day 7, animals received progesterone by subcutaneous injection (160 μg/day) and the experimental compound in appropriate vehicle orally or subcutaneously for five consecutive days. One group of rabbits received progesterone only. Twenty-four hours after the last dose, all animals were sacrificed for removal of the uterus which was cleaned of all fat and connective tissue, weighed to the nearest 0.2 mg and placed in 10% neutral buffered formalin for subsequent histological processing. Five micron sections stained with hematoxylin and eosin were evaluated microscopically for the degree of endometrial glandular proliferation. The percent inhibition of endometrial proliferation at each dose level of the test compound was derived by comparison with progesterone-stimulated animals alone. The data presented in Table 1 (rabbit Biol. Act.) reflects the average of the results obtained for each compound by the anti-McGinty and anti-Clauberg assays relative to CDB-2914.
smiles,measurement,setting,value
"CC(=O)O[C@]1(C(C)=O)CC[C@H]2[C@@H]3CCC4=CC(=O)CCC4=C3[C@@H](c3ccc(N(C)C)cc3)C[C@@]21C [CDB-2914, 17α-acetoxy-11β-(4-N,N-dimethylaminophenyl)-19-norpregna-4,9-dien-3,20-dione, reference compound]",anti-glucocorticoid receptor activity / glucocorticoid receptor binding (in words),[1],moderately active in glucocorticoid receptor binding
same,rbPR/rbGR (ratio of the relative binding affinities for rbPR and rbGR),[2],1.07
same,rabbit Biol. Act.,[3],1.00
